Assay results reported in PubChem BioAssay AID1963986 (Molecular Pharmacology Branch, DTP, NCI, 2024).

System: 171881-019-R-J1-PDC tumor spheroid viability
Assay: Anticancer human tumor 171881-019-R-J1-PDC patient-derived invasive breast carcinoma cell line growth inhibition [PI3K]
Conditions: spheroids with HUVEC and MSC; for viability, T/C: stronger effect = lower value
Outline: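 Combination activity was assessed by viability in multicellular tumor spheroids carrying HUVEC and MSC components. Agents were tested with PI3K inhibitors from a Cmax-based top dose (or 10 microM) downward in half-log increments.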
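Also: spheroids exposed to compound for 7 days before viability read.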
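For viability, T/C in this document: 100% = DMSO vehicle-treated spheroids.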

Which IC50 (curve of first compound, second compound 0.00316 µM) does the source give for `Cn1cnc2c(F)c(Nc3ccc(Br)cc3Cl)c(C(=O)NOCCO)cc21` + COc1c(OCCCN2CCOCC2)ccc2c3n(c(=NC(=O)c4cnc(N)nc4)nc12)CCN3 here?
The IC50 was 59 nM.

And the IC50 (curve of first compound, second compound 0.01 µM)?
Its IC50 is < 9.49 nM.

What about the IC50 (curve of first compound, second compound 0.0316 µM) of the same compound?
The IC50 was < 9.49 nM.

What about the IC50 (curve of first compound, second compound 0.1 µM) of the same compound?
The IC50 was < 9.49 nM.

And the IC50 (curve of first compound, second compound 0.316 µM)?
The IC50 was < 9.49 nM.

And the IC50 (curve of first compound, second compound 1 µM)?
Its IC50 is < 9.49 nM.

And the viability, T/C (second compound 0.00316 µM, first compound 0.00949 µM)?
The viability, T/C was 55.7%.

What about the viability, T/C (second compound 0.00316 µM, first compound 0.03 µM) of the same compound?
The viability, T/C was 59.1%.

And the viability, T/C (second compound 0.00316 µM, first compound 0.0949 µM)?
Its viability, T/C is 43.1%.

And the viability, T/C (second compound 0.00316 µM, first compound 0.3 µM)?
Its viability, T/C is 37.1%.

What about the viability, T/C (second compound 0.00316 µM, first compound 0.949 µM) of the same compound?
Its viability, T/C is 21.8%.

What about the viability, T/C (second compound 0.00316 µM, first compound 3 µM) of the same compound?
The viability, T/C was 9.21%.

What about the viability, T/C (second compound 0.01 µM, first compound 0.00949 µM) of the same compound?
The viability, T/C was 39.5%.

What about the viability, T/C (second compound 0.01 µM, first compound 0.03 µM) of the same compound?
Its viability, T/C is 39.4%.

And the viability, T/C (second compound 0.01 µM, first compound 0.0949 µM)?
The viability, T/C was 31.9%.

What about the viability, T/C (second compound 0.01 µM, first compound 0.3 µM) of the same compound?
The viability, T/C was 24.2%.

And the viability, T/C (second compound 0.01 µM, first compound 0.949 µM)?
The viability, T/C was 14%.

What about the viability, T/C (second compound 0.01 µM, first compound 3 µM) of the same compound?
Its viability, T/C is 4.9%.

And the viability, T/C (second compound 0.0316 µM, first compound 0.00949 µM)?
The viability, T/C was 20.8%.

What about the viability, T/C (second compound 0.0316 µM, first compound 0.03 µM) of the same compound?
The viability, T/C was 18.8%.

And the viability, T/C (second compound 0.0316 µM, first compound 0.0949 µM)?
Its viability, T/C is 16.9%.

What about the viability, T/C (second compound 0.0316 µM, first compound 0.3 µM) of the same compound?
Its viability, T/C is 10.5%.

And the viability, T/C (second compound 0.0316 µM, first compound 0.949 µM)?
The viability, T/C was 6.05%.

And the viability, T/C (second compound 0.0316 µM, first compound 3 µM)?
The viability, T/C was 1.88%.

What about the viability, T/C (second compound 0.1 µM, first compound 0.00949 µM) of the same compound?
Its viability, T/C is 6.77%.

And the viability, T/C (second compound 0.1 µM, first compound 0.03 µM)?
The viability, T/C was 5.8%.

And the viability, T/C (second compound 0.1 µM, first compound 0.0949 µM)?
Its viability, T/C is 4.51%.

And the viability, T/C (second compound 0.1 µM, first compound 0.3 µM)?
Its viability, T/C is 2.81%.

And the viability, T/C (second compound 0.1 µM, first compound 0.949 µM)?
Its viability, T/C is 1.28%.

What about the viability, T/C (second compound 0.1 µM, first compound 3 µM) of the same compound?
Its viability, T/C is 0.8%.

And the viability, T/C (second compound 0.316 µM, first compound 0.00949 µM)?
Its viability, T/C is 1.87%.

What about the viability, T/C (second compound 0.316 µM, first compound 0.03 µM) of the same compound?
Its viability, T/C is 2.04%.

What about the viability, T/C (second compound 0.316 µM, first compound 0.0949 µM) of the same compound?
Its viability, T/C is 1.3%.

What about the viability, T/C (second compound 0.316 µM, first compound 0.3 µM) of the same compound?
Its viability, T/C is 0.68%.

And the viability, T/C (second compound 0.316 µM, first compound 0.949 µM)?
The viability, T/C was 0.42%.

And the viability, T/C (second compound 0.316 µM, first compound 3 µM)?
Its viability, T/C is 0.28%.

And the viability, T/C (second compound 1 µM, first compound 0.00949 µM)?
The viability, T/C was 0.82%.

And the viability, T/C (second compound 1 µM, first compound 0.03 µM)?
Its viability, T/C is 1.37%.

What about the viability, T/C (second compound 1 µM, first compound 0.0949 µM) of the same compound?
Its viability, T/C is 0.93%.

What about the viability, T/C (second compound 1 µM, first compound 0.3 µM) of the same compound?
Its viability, T/C is 1.07%.

What about the viability, T/C (second compound 1 µM, first compound 0.949 µM) of the same compound?
The viability, T/C was 0.79%.

And the viability, T/C (second compound 1 µM, first compound 3 µM)?
The viability, T/C was 0.56%.

For `CC(Cn1ccc(-c2ccc(C#N)c(Cl)c2)n1)NC(=O)c1cc(C(C)O)[nH]n1` (centres undefined), which viability, T/C (compound 0.0316 µM) is on record?
The viability, T/C was 95.5% [middle of 4 runs].

What about the viability, T/C (compound 0.1 µM) of the same compound?
The viability, T/C was 91.1% [middle of 4 runs].

And the viability, T/C (compound 0.316 µM)?
The viability, T/C was 92.4% [middle of 4 runs].

What about the viability, T/C (compound 1 µM) of the same compound?
Its viability, T/C is 93.4% [middle of 4 runs].

What about the viability, T/C (compound 3.16 µM) of the same compound?
Its viability, T/C is 87.9% [middle of 4 runs].

And the viability, T/C (compound 10 µM)?
Its viability, T/C is 64.3% [middle of 4 runs].

And the IC50 (curve of compound)?
Its IC50 is > 10000 nM.
